Data reported in patent publication US20050036904A1, “Methods for eradication of nanobacteria” (priority 1998, published 2005).
Counter-ions that a name gives are not always drawn.

Experiments:
SF-nanobacteria = assay: Chemical disinfection of SF-nanobacteria; assay type: cell-based; parameters: Resistance of SF-nanobacteria to chemical disinfectants (survival), exposure time 10 min: key to the marks not given beside the values; settings: for Resistance of SF-nanobacteria to chemical disinfectants (survival), exposure time 10 min: 10 min exposure at room temperature; for Resistance of SF-nanobacteria to chemical disinfectants (survival), exposure time 10 min / Resistance of SF-nanobacteria to chemical disinfectants (survival), exposure time 30 min: survival after subculture compared to diluent only; for Resistance of SF-nanobacteria to chemical disinfectants (survival), exposure time 30 min: 30 min exposure at room temperature; for Effect of chemical treatment on SF-nanobacteria (in words): room temperature exposure
From the text: The cultures were exposed to the disinfectants after removal of the culture medium. For the autoclaving, UV, microwave, and drying treatments, the medium was removed and an equal amount of PBS used instead. For the heat treatments, the SF-nanobacteria were harvested by scraping the culture vessel followed by centrifugation of the medium. The obtained pellet was suspended in PBS and used in the test. After treatments the SF-nanobacteria were subcultured in DMEM medium and the growth followed by light microscopy to see the adherence and typical mineralization.
The concentrations of the chemicals used were those commonly used for disinfection or as instructed by the manufacturer. The chemicals included 70% ethanol, 2% glutaraldehyde, 4% formaldehyde, 0.5% hypochlorite, 3% hydrogen peroxide, 1M hydrochloric acid (HCl), 1M sodium hydroxide (NaOH), 1% sodium dodecyl sulfate (SDS), 1% Tween 80, 1% Triton X-100, 3M guanidium-hydrochloride, 3M urea, 1% Virkon® (Antec International Ltd., Suffolk, England; 100% product contains 50% potassium persulfate, 5% sulfaminoic acid), 1.5% Erifenol® (Orion OY, Finland; 100% product contains <5% NaOH, <5% o-benzyl-p-chlorophenol, 5-15% p-chloro-m-cresol), 1% Klorilli® (Orion OY, Finland; 100% product contains sodium metasilicate, sodium N-chloro-p-toluenesulfonamide-3-hydrate and 20,000 ppm active chlorine), and 3% Buraton® (Schulke & Mayr, Germany; 100% product contains 4.5% formaldehyde, 6.8% glyoxal, 1.5% glyoxylic acid, 6% dimethylaurylbenzyl-ammonium chloride). The dilutions to be used were freshly prepared on the day of exposure in sterile distilled water. As a positive control, only diluent was used. Negative control contained only culture medium.
The SF-nanobacteria were exposed to the chemicals for 10 and 30 minutes at room temperature after removal of the culture medium. After exposure, the disinfectant solution was removed and fresh medium added (with a neutralization step in the case of HCl and NaOH). If any significant deattachment occurred, nanobacteria were recovered by centrifugation, and subcultured.

nanobacteria [1] = assay: Antibiotic susceptibility of nanobacteria, Minimal Inhibition Concentration (MIC) in 96-well plates; assay type: cell-based
Procedure: Antibiotic sensitivity tests were carried out by measuring Minimal Inhibition Concentration (MIC), a common practice in clinical microbiology.
The tests were performed in 96-well plates. DMEM (commercial cell culture medium) containing 10% gamma-irradiated fetal bovine serum (FBS)(dose about 3 Mrads; this treatment inactivates nanobacteria in the serum so that the basic medium is sterile) was used as the basic culture medium. These components are commercially available, e.g., from Gibco. The antibiotic stock solutions were sterile filtered through 0.2 micrometer filters. The stock solutions were then serially diluted (into the basal culture medium) to provide a final starting concentration of 0.5 mg/ml and 1:2 dilutions therefrom, unless otherwise specified. For each antibiotic three parallel tests were performed using all the antibiotic dilutions and, additionally, positive and negative control experiments. […] 100 μl of dilutions of the nanobacteria inoculum were added to all wells except the negative controls. The plates were incubated at mammalian cell culture conditions (37° Celsius, 5% carbon dioxide, 95% humid air). The absorbance values at 650 nm were recorded by using an ELISA reader at the start, and at 4, 8, 12, 14 days. […] Calculations were based on absorbance curves where absorbance was plotted against concentration of the antibiotic.

[2] = test system: nanobacterial stone formation on human teeth; settings: fluoride concentrations typically present in toothpastes
bone resorption = settings: both in vitro and in vivo; cited from earlier work
nanobacterial biofilm = assay: Nanobacterial biofilm formation on commercial stents in vitro; assay type: cell-based, nanobacteria; settings: salts added to the culture medium; two commercial plastic-type stents
From the text: (§1) Nanobacteria also absorb some heavy metals. Nanobacteria can be stained well with silver or copper compounds. […] Silver and copper parts or platings on surfaces, such as catheters or stents, can provide an antinanobacterial effect by preventing nanobacterial biofilm formation. In in vitro tests nanobacteria avidly formed biofilm on two different commercial stents made of a plastic type of material. This biofilm formation was prevented by the addition of silver or copper salts to the culture medium.

nanobacteria [3] = assay: Nanobacterial growth in culture media with metal ions; assay type: cell-based; settings: added to culture media at submillimolar levels
From the text: as §1

nanobacteria [4] = assay: Treatment of human patients infected with nanobacteria; assay type: in vivo; settings: person, chronic fatigue syndrome
serum nanobacteria = assay: Antibiotic sensitivity test of serum nanobacteria (cell culture antibiotics); assay type: cell-based; settings: 100 μg/ml, cultured one month in medium containing 10% fetal bovine serum
Procedure: Nanobacteria were cultured with 10% fetal bovine serum in DMEM medium (serum nanobacteria) for one month at 37° C. in an atmosphere of 5% CO2-95% air. The cultures were harvested by centrifugation. For the autoclaving, UV, microwave, heating and drying treatments, the harvested nanobacteria were suspended in phosphate buffered saline (pH 7.4; PBS). After treatments, subculturing of the nanobacteria was made in 10% gamma irradiated fetal bovine serum in DMEM medium. The growth of serum nanobacteria was followed by light microscopy and absorbance measurement with a spectrophotometer at 650 nm.
The 1× concentrations are those recommended for cell culture. After 10 days culture in 10% serum containing DMEM with the antibiotic, growth was compared to that of nanobacteria cultures without antibiotics present.

[5] = test system: calculus formation on teeth; settings: laboratory animals; cited from earlier work

Compound	Resistance of SF-nanobacteria to chemical disinfectants (survival), exposure time 30 min (SF-nanobacteria)	Kind of antinanobacterial effect in the in vitro test (in words) (nanobacteria [1])	also measured
OCl [0.5% hypochlorite, hypochlorite]	+++	–	Resistance of SF-nanobacteria to chemical disinfectants (survival), exposure time 10 min (SF-nanobacteria): +++
CCCCCCCCCCCCOS(=O)(=O)[O-].[Na+] [1% SDS, sodium dodecyl sulfate]	+++	–	Resistance of SF-nanobacteria to chemical disinfectants (survival), exposure time 10 min (SF-nanobacteria): +++
CCCCCCCC/C=C\CCCCCCCC(=O)OCCOCC(OCCO)C1OCC(OCCO)C1OCCO (stereo not shown) [1% Tween 80, Tween 80]	+++	–	Resistance of SF-nanobacteria to chemical disinfectants (survival), exposure time 10 min (SF-nanobacteria): +++
Cl [1M HCl, hydrochloric acid]	++	–	Effect of chemical treatment on SF-nanobacteria (in words) (SF-nanobacteria): dissolved the apatite layer of nanobacteria, but remineralization was observed after addition of culture medium
[Na+].[OH-] [1M NaOH, sodium hydroxide]	+++	–	Resistance of SF-nanobacteria to chemical disinfectants (survival), exposure time 10 min (SF-nanobacteria): +++
O=CCCCC=O [2% glutaraldehyde, glutaraldehyde]	+++	–	Resistance of SF-nanobacteria to chemical disinfectants (survival), exposure time 10 min (SF-nanobacteria): +++
OO [3% H2O2, hydrogen peroxide]	+++	–	Resistance of SF-nanobacteria to chemical disinfectants (survival), exposure time 10 min (SF-nanobacteria): +++
N=C(N)N [3M Guanidium HCl, guanidium-hydrochloride]	0	–	Effect of chemical treatment on SF-nanobacteria (in words) (SF-nanobacteria): resulted in the deattachment of the SF-nanobacteria
NC(N)=O [3M Urea, urea]	+++	–	Resistance of SF-nanobacteria to chemical disinfectants (survival), exposure time 10 min (SF-nanobacteria): +++
C=O [4% formaldehyde, formaldehyde]	+++	–	Resistance of SF-nanobacteria to chemical disinfectants (survival), exposure time 10 min (SF-nanobacteria): +++
CCO [70% ethanol, ethanol]	+++	–	Resistance of SF-nanobacteria to chemical disinfectants (survival), exposure time 10 min (SF-nanobacteria): +++
CC(=O)Oc1ccccc1C(=O)O [Acetylsalicylic acid]	–	weak	–
CC1(C)S[C@@H]2[C@H](NC(=O)[C@H](N)c3ccccc3)C(=O)N2[C@H]1C(=O)O [Ampicillin]	–	weak bacteriostatic effect	–
O=P(O)(O)C(Cl)(Cl)P(=O)(O)O [Chlodronate]	–	bacteriocidic effect	–
O=C(O)CC(O)(CC(=O)O)C(=O)O [Citrate]	–	effective antinanobacterial agent	–
C[C@H]1c2cccc(O)c2C(=O)C2=C(O)[C@]3(O)C(=O)C(C(N)=O)=C(O)[C@@H](N(C)C)[C@@H]3[C@@H](O)[C@@H]21 [Doxycyclin, Doxycycline]	–	effective on inhibiting nanobacterial growth	MIC values calculated from the 8 day results (nanobacteria [1]; 8 day results): around 1 mg per liter; Stability under the test conditions (nanobacteria [1]; MIC test culture conditions): not stable under the test conditions
O=C(O)CN(CCN(CC(=O)O)CC(=O)O)CC(=O)O [EDTA, ethylenediaminetetraacetic acid]	–	antinanobacterial effects	–

Compound	Resistance of SF-nanobacteria to chemical disinfectants (survival), exposure time 30 min (SF-nanobacteria)	Kind of antinanobacterial effect in the in vitro test (in words) (nanobacteria [1])	also measured
O=C(O)CN(CCOCCOCCN(CC(=O)O)CC(=O)O)CC(=O)O [EGTA]	–	antinanobacterial effects	–
CC(O)(P(=O)(O)O)P(=O)(O)O [Ethidronate]	–	bacteriocidic effect	–
F [Fluoride]	–	–	Nanobacterial stone formation on human teeth [2]: inhibit nanobacterial stone formation
[H]/N=C(/N)N[C@H]1[C@H](O)[C@@H](O)[C@H](O[C@@H]2O[C@@H](C)[C@](O)(C=O)[C@H]2O[C@@H]2O[C@@H](CO)[C@H](O)[C@@H](O)[C@@H]2NC)[C@@H](N/C(N)=N\[H])[C@@H]1O [Streptomycin]	–	bacteriostatic effects at high antibiotic concentrations	–
COc1cc(Cc2cnc(N)nc2N)cc(OC)c1OC [Trimethoprim]	–	highly effective but was only bacteriostatic	–
CN[C@H](CC(C)C)C(=O)N[C@H]1C(=O)N[C@@H](CC(N)=O)C(=O)N[C@H]2C(=O)N[C@H]3C(=O)N[C@H](C(=O)N[C@H](C(=O)O)c4cc(O)cc(O)c4-c4cc3ccc4O)[C@H](O)c3ccc(c(Cl)c3)Oc3cc2cc(c3O[C@@H]2O[C@H](CO)[C@@H](O)[C@H](O)[C@H]2O[C@H]2C[C@](C)(N)[C@H](O)[C@H](C)O2)Oc2ccc(cc2Cl)[C@H]1O [Vancomycin]	–	effective bacteriostat against nanobacteria at relatively high concentrations	–
CC1=CC(=O)c2ccccc2C1=O [Vitamin K (Menadion), Menadion]	–	toxic to nanobacteria at concentrations that are not harmful to mammalian cells	–
NCCCC(O)(P(=O)(O)O)P(=O)(O)O [alendronate]	–	–	Potency relative to etidronate (bone resorption): approximately 700 fold
[Cu] [copper]	–	–	Biofilm formation on stents (nanobacterial biofilm): prevented; Nanobacterial growth (nanobacteria [3]): prevented nanobacterial growth
Nc1ccc(C(=O)O)c(O)c1 [para-aminosalicylic acid]	–	–	MIC value (in words) (nanobacteria [1]; compared with acetylsalicylic acid): identical with acetylsalicylic acid
CN(C)[C@@H]1C(O)=C(C(N)=O)C(=O)[C@@]2(O)C(O)=C3C(=O)c4c(O)cccc4[C@@](C)(O)[C@H]3C[C@@H]12 [tetracycline HCl]	–	–	Nanobacteria status of patient samples (nanobacteria [4]; 500 mg 4 times per day for one month, then 500 mg twice a day for 5 months, urine and serum samples): nanobacteria negative after one month therapy; Patient's condition (nanobacteria [4]; after one month therapy): improved
Gentamycin	–	bacteriostatic effects at high antibiotic concentrations	Morphology of nanobacteria in SEM (serum nanobacteria): changes in the morphology
Neomycin	–	bacteriostatic effects at high antibiotic concentrations	–
Penicillin	–	–	Calculus formation [5]: do not
Triton X-100 [1% Triton X-100]	+++	–	Resistance of SF-nanobacteria to chemical disinfectants (survival), exposure time 10 min (SF-nanobacteria): +++
Vitamin D	–	very weak inhibitory effect	–
silver	–	–	Biofilm formation on stents (nanobacterial biofilm): prevented; Nanobacterial growth (nanobacteria [3]): prevented nanobacterial growth
